Reference: US20260158102A1, “CYCLIC PEPTIDE DERIVATIVE COMPOSITION FOR TREATING OR PREVENTING NEUROPATHIC PAIN AND/OR INFLAMMATORY PAIN” (DKS Co. Ltd., priority 2022, published 2026)

System: rat carrageenan-induced paw edema model
Assay: Mechanical hyperalgesia (Randall-Selitto pain threshold) in rat carrageenan-induced paw edema model
Assay type: in vivo
Conditions: for Pain threshold (mmHg) 2 hour: 2 hours after carrageenan inflammation, control 31.6 ± 1.4
Description: On the day before the administration of the phlogistic agent, the pain threshold of each individual by the Randall-Selitto method was measured using an Analgesy meter.
On the day before the use of the phlogistic agent, a required amount of carrageenan (Tokyo Chemical Industry Co., Ltd.) was weighed, ground using an agate mortar and pestle, and suspended while adding physiological saline little by little, thereby preparing a 1 w/v % carrageenan physiological saline solution. After preparation, the solution was stored in a refrigerator and used the next day.
The test substance was intravenously administered, and after 5 minutes, 0.1 mL of a phlogistic agent (1 w/v % carrageenan physiological saline solution) was subcutaneously administered to the right hind paw of the animal to induce inflammation.
2, 3, 4, and 5 hours after inflammation, the pain threshold was measured by the Randall-Selitto method using an Analgesy meter.
Dunnett's multiple comparison test was performed between the control group and the test substance group at each measurement time point.

In the case of CC[C@@]1(C)Oc2cc(ccc2O)C[C@H](N(C)C)C(=O)N[C@@H](C(C)C)C(=O)N[C@@H]1C(=O)N[C@@H](CCC(=O)O)C(=O)O [Compound 23], the “Pain threshold (mmHg) 2 hour” value (1 mg/kg i.v., mean ± SE, N=7) is reported as 31.6 ± 2.2 mmHg, the “Pain threshold (mmHg) 4 hour” value (1 mg/kg i.v., 4 hours after carrageenan inflammation, mean ± SE, N=7, control 30.3 ± 0.7) is reported as 34.0 ± 1.3 mmHg and the “Pain threshold (mmHg) 5 hour” value (1 mg/kg i.v., 5 hours after carrageenan inflammation, mean ± SE, N=7, control 28.3 ± 1.9) is reported as 30.1 ± 1.0 mmHg. For the same molecule, the “Pain threshold (mmHg) 2 hour” value (5 mg/kg i.v., mean ± SE, N=7) was 34.9 ± 1.7 mmHg, the “Pain threshold (mmHg) 2 hour” value (25 mg/kg i.v., mean ± SE, N=7) was 36.7 ± 2.4 mmHg and the “Effect on inflammatory pain (pain threshold by the Randall-Selitto method)” value (rat carrageenan-induced paw edema model, i.v. 1-25 mg/kg, overall conclusion) was “suppressing effect on inflammatory pain”.
